Measured values reported in US20250368687A1, “SHORT SYNTHETIC PEPTIDES AND USES THEREOF IN THE TREATMENT OF ENTEROVIRUS INFECTION” (CITY UNIVERSITY OF HONG KONG, priority 2024, published 2025).

What was measured:
EV-A71 IRES activity = experiment: Dual-luciferase IRES reporter assay in HEK 293T cells pre-treated with peptides; format: cell-based; conditions: 25 μM for 2 hours; for decrease of 2Apro-induced viral IRES activity: 24 h
Description: (§1) FIGS. 10A-10K. Peptide S78 inhibited EV-A71 replication and propagation. (FIG. 10A) RD cells were pre-treated with peptides S78 or for 2 hours and infected with EV-A71 at the MOI of 10 for 6 hours. Cell lysates were collected for western blot assay. Hsp27 phosphorylation on Ser 15, 78, 82 were detected by specific antibodies. β-Actin were detected as internal control. (FIG. 10B) Densitometric analysis of FIG. 9A. (FIG. 10C) HEK 293T cells were pre-treated with peptides S78 or S78A at the concentration of 25 μM for 2 hours and then co-transfected with Hsp27-WT plasmid (800 ng), pIRES reporter plasmid (200 ng) and 2A^pro-expressing plasmid or 2AC110A-expressing plasmid (200 ng) for 24 h, then the luciferase activity was measured. (FIG. 10D-10E) RD cells were treated with peptides S78 or S78A and then infected with EV-A71. EV-A71 VP1 were detected. (FIG. 10F) RD cells were treated with peptides and then infected with EV-A71 at the MOI of 1 for 12 hours. The EV-A71-induced CPE was captured. (FIG. 10G-10H) Intracellular viral RNA was extracted and quantified by qPCR. (FIG. 10I) Densitometric analysis FIG. 9D-E. (FIG. 10J) RD cells were treated with peptides S78 or and then infected with EV-A71 at the MOI of 1 for 12 hours. Extracellular viral RNA was extracted and quantified by qPCR. (FIG. 10K) Viral titration was calculated by TCID50. The Statistical analyses were carried out using Student's t-test. *: p<0.05, **: p<0.01, ***: p<0.001. Data are expressed as mean ±SD.
FIGS. 11A-11G Inhibition of EV-A71 Protein Translation and Viral Reproduction by peptide S82A. (FIG. 11A) HEK 293T cells were pre-treated with peptides NC, S78, S78A, S82A, or S78-3A at the concentration of 25 μM for 2 hours and then co-transfected with Hsp27-WT plasmid (800 ng), pIRES reporter plasmid (200 ng) and 2A^pro-expressing plasmid for 24 h, then the luciferase activity was measured. (FIG. 11B) RD cells were pre-treated with peptides NC at indicated concentrations for 2 hours and infected with EV-A71 at the MOI of 1 for 9 hours. Intracellular viral RNA was extracted and quantified by qPCR. […] EV-A71 VP1 were detected. β-Actin was detected as an internal control. (FIG. 11F) Densitometric analysis of the EV-A71 VP1 level in FIG. S7C-E was quantified and normalized with β-Actin using ImageJ. […] Viral titration was calculated. […] Data are expressed as mean ±SD.
HEK 293T cells were seeded in 24-wells, and then co-transfected with plasmids to simultaneously express 2A^pro (200 ng), pIRES reporter (200 ng), and the wild-type Hsp27 or its mutants (800 ng). […] The Renilla luciferase (RLuc) and Firefly luciferase (FLuc) activity were determined by using a dual-luciferase reporter assay (Promega) according to the manufacturer's instructions in a Lumat LB9507 bioluminometer.

EV-A71 = experiment: Viral RNA quantification by RT-qPCR; format: cell-based; conditions: for decrease of extracellular viral RNA level: 25 μM, EV-A71 MOI 1 for 12 hours; for decrease of extracellular viral RNA level / decrease of viral RNA / viral RNA level (in words): RD cells; for decrease of viral RNA: 50 μM; for decrease of viral RNA / viral RNA level (in words): intracellular viral RNA; for viral RNA level (in words): indicated concentrations; for effect on viral RNA level: 8 μM
Description: FIGS. 7A-7D Ser78 phosphorylation-deficient Hsp27 inhibits EV-A71 replication and propagation (FIG. 7A) HEK 293T cells were transfected with 500 ng Hsp27 (WT, 3A, S15A, S78A, S82A) plasmids for 48 hours, and then infected with EV-A71 at an MOI of 10 for 9h. Intracellular viral RNA were extracted and quantified by qPCR. (FIG. 7B) HEK 293T cells were transfected with 500 ng Hsp27 (WT, 3D, S15D, S78D, S82D) plasmids for 48 hours, and then infected with EV-A71 at an MOI of 10 for 9h. Intracellular viral RNA were extracted and quantified by qPCR. (FIG. 7C) HEK 293T cells were transfected with 500 ng Hsp27 (WT, S78A, S78D) plasmids for 48 hours, and treated with 8 μM SB203580 2 hours before infection with EV-A71. (FIG. 7D) HEK 293T cells were transfected with 500 ng Hsp27 (WT, 3A, S15A, S78A, S82A) plasmids for 48 hours, and then infected with EV-A71 at an MOI of 10 for 12h. Viral titration was calculated by TCID50. Statistical analyses were carried out using Student's t-test. *: p<0.05, **: p<0.01, ***: p<0.001. Data are expressed as mean ±SD.
as §1
FIGS. 11A-11G Inhibition of EV-A71 Protein Translation and Viral Reproduction by peptide S82A. (FIG. 11A) HEK 293T cells were pre-treated with peptides NC, S78, S78A, S82A, or S78-3A at the concentration of 25 μM for 2 hours and then co-transfected with Hsp27-WT plasmid (800 ng), pIRES reporter plasmid (200 ng) and 2A^pro-expressing plasmid for 24 h, then the luciferase activity was measured. (FIG. 11B) RD cells were pre-treated with peptides NC at indicated concentrations for 2 hours and infected with EV-A71 at the MOI of 1 for 9 hours. Intracellular viral RNA was extracted and quantified by qPCR. (FIG. 11C-11E) RD cells were treated with peptides NC, S82A, or S78-3A at indicated concentrations for 2 hours and then infected with EV-A71 at the MOI of 1 for 9 hours. Cell lysates were collected for western blot assay. EV-A71 VP1 were detected. β-Actin was detected as an internal control. (FIG. 11F) Densitometric analysis of the EV-A71 VP1 level in FIG. S7C-E was quantified and normalized with β-Actin using ImageJ. (FIG. 11G) RD cells were treated with peptides S78, S78A, S82A, or S78-3A at the concentration of 25 μM for 2 hours and then infected with EV-A71 at the MOI of 0.1 for 24 hours. Viral titration was calculated. The Statistical analyses were carried out using Student's t-test. *: p<0.05, **: p<0.01, ***: p<0.001. Data are expressed as mean ±SD. […]

Row | Molecule | decrease of 2Apro-induced viral IRES activity (EV-A71 IRES activity) | decrease of extracellular viral RNA level (EV-A71) | decrease of viral RNA (EV-A71) | effect on viral IRES activity (in words) (EV-A71 IRES activity; 24 h (FIG. 11A)) | viral RNA level (in words) (EV-A71) | decrease of viral RNA level (EV-A71; 8 μM 2 hours before infection, Hsp27 over-expressing HEK 293T cells) | effect on viral RNA level (EV-A71; Hsp27 S78A-expressing HEK 293T cells) | effect on viral RNA level (EV-A71; Hsp27 S78D-expressing HEK 293T cells)
1 | Ac-RKKRRQRRRAYSRALARQLSS-NH2 [S78A] | about 10% | 30 folds | 46% |  |  |  |  | 
2 | Ac-RKKRRQRRRYSREANQPKPSPKRESGEE-NH2 [NC, reference compound] |  |  |  | did not affect | no effect |  |  | 
3 | Ac-RKKRRQRRRAYSRALSRQLSS-NH2 [S78] | 34% | 800 folds | 82% |  | dramatically reduced |  |  | 
4 | C[S+]([O-])c1ccc(-c2nc(-c3ccncc3)c(-c3ccc(F)cc3)[nH]2)cc1 (stereo not drawn) [SB203580, reference compound] |  |  |  |  |  | 50% | no obvious effects | no obvious effects
